Results on 8 molecules are retold here after patent EP4778924A1 (Huons Co., Ltd., priority 2023, dated 2025).

“Also recorded” adds a separate entry of the source. Some results are limits rather than exact numbers.

One assay concerns Pylorus-Ligated Rats. Description: Inhibitory activity on basal gastric acid secretion in pylorus-ligated rats (Shay's rat model). The format is in vivo, male Sprague Dawley (SD) rats. The following applies: for inhibition in vivo at 2 mg/kg: Rattus norvegicus, po, read-out: GERD (rat/mpk); for inhibitory activity against basal gastric acid secretion: result in words, pyloric-ligated rats, 2 mg/kg oral. The procedure:
Specifically, male Sprague Dawley (SD) rats (weighing 180-220 g) were fasted for 24 hours with only water, and then randomly assigned to groups (n=4-5) after measuring body weight. The negative control group was orally administered 10% dimethylsulfoxide (DMSO)/10% Cremophor EL/80% D.W. at 2 mL/kg, and the test group was orally administered the test compound at 2 mg/kg/2 mL. One hour after administration, the rats' abdominal cavity was incised under isoflurane anesthesia, the stomach was exposed, and the pylorus was ligated. Three hours after ligation, the test animals were sacrificed and the stomach contents were collected by laparotomy again. The contents were centrifuged (3,000 rpm, 10 min), and only the supernatant was separated to obtain gastric juice. Afterwards, gastric fluid volume measurement, gastric fluid pH measurement, NaOH titration, and total gastric acid secretion calculation (gastric fluid volume × 0.1 N NaOH titer × 100) were sequentially performed.

The target in assay [1] is T1, Proton Pump (H^+,K^+-ATPase) (Sus scrofa, UniProt P19156).
T1 construct: gastric vesicles were isolated from porcine stomachs; from tissue; host or cells: porcine stomach (gastric vesicles)
T1 sequence (P19156 2-1034 limits assumed): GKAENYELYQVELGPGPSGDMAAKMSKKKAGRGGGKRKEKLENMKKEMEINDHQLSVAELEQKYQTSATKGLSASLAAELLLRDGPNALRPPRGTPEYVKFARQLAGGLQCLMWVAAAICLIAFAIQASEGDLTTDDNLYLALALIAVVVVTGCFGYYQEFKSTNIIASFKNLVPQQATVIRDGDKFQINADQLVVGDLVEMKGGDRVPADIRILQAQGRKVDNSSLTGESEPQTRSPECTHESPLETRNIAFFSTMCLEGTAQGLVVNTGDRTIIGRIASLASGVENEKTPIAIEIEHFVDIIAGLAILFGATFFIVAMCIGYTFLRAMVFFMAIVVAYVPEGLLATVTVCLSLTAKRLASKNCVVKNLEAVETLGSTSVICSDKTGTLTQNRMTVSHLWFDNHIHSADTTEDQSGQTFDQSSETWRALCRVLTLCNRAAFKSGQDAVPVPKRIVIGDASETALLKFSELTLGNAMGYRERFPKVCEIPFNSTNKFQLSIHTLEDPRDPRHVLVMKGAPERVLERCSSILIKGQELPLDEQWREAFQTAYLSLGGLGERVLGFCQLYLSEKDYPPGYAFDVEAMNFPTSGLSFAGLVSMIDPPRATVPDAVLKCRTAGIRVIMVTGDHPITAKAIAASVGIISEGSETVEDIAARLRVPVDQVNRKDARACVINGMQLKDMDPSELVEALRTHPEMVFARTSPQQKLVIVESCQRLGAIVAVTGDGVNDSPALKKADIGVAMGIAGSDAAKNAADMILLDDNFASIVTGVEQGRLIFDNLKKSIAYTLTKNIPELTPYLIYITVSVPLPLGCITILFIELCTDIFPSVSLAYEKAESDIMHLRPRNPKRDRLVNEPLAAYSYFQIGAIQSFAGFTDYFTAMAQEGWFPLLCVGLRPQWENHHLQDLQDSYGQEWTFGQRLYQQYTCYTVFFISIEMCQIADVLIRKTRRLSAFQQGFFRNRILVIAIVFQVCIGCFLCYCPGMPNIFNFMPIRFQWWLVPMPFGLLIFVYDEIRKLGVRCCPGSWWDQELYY
T1 sequence (P18434 whole entry partner): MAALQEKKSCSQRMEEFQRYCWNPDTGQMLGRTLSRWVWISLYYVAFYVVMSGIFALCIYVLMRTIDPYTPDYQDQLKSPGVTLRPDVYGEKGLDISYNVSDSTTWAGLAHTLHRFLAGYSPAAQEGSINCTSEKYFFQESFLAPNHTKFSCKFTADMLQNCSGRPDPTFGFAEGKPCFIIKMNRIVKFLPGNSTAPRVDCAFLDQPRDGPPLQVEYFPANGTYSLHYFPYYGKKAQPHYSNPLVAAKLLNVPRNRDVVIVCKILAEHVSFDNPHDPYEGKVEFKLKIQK
The experiment in a line: Inhibitory activity on proton pump (H+,K+-ATPase) activity, porcine gastric vesicles, malachite green readout. The format is biochemical. The settings on record: for IC50: porcine gastric vesicles, pH 6.5, 8 mM KCl, 0.2 mM ATP; for inhibitory activity against proton pump activity: result in words. Put shortly:
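Porcine gastric vesicles (100 ng) preincubated 30 min at 37°C with […] valinomycin and compound (0.1% DMSO final) in 50 mM Tris-HEPES, 5 mM MgCl2, 8 mM KCl, pH 6.5, then 0.2 mM ATP for 20 min at 37°C. Released phosphate measured by malachite green at 620 nm; IC50 via nonlinear regression of % inhibition.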

With `COCC(=O)Nc1cc(NCc2c(C)cccc2C)c2nc(C)c(C)n2c1` [Example 15, N-(8-((2,6-dimethylbenzyl)amino)-2,3-dimethylimidazo[1,2-a]pyridin-6-yl)-2-methoxyacetamide], in the assay with Pylorus-Ligated Rats, the inhibition in vivo at 2 mg/kg is at least 90% and the “inhibitory activity against basal gastric acid secretion” value is given as “inhibitory activity”. Further, in assay [1], the IC50 (in general, the concentration at which inhibition is half-maximal) is under 50 nM and the “inhibitory activity against proton pump activity” value is listed as “excellent inhibitory properties”.

Turning to `CC(=O)Nc1cc(NCc2c(C)cc(F)cc2C)c2nc(C)c(C)n2c1` [Example 21, N-(8-((4-fluoro-2,6-dimethylbenzyl)amino)-2,3-dimethylimidazo[1,2-a]pyridin-6-yl)acetamide], in the assay with Pylorus-Ligated Rats, the inhibition in vivo at 2 mg/kg is at least 90% and the “inhibitory activity against basal gastric acid secretion” value is listed as “inhibitory activity”. In addition, in assay [1], the IC50 was under 50 nM and the “inhibitory activity against proton pump activity” value is given as “excellent inhibitory properties”.

For `Cc1cccc(C)c1CNc1cc(NC(=O)CO)cn2c(C)c(C)nc12` [Example 26, N-(8-((2,6-dimethylbenzyl)amino)-2,3-dimethylimidazo[1,2-a]pyridin-6-yl)-2-hydroxyacetamide], in the assay on Pylorus-Ligated Rats, the inhibition in vivo at 2 mg/kg is at least 90% and the “inhibitory activity against basal gastric acid secretion” value was “inhibitory activity”. Also, in assay [1], the 50% inhibitory concentration (IC50) was under 50 nM and the “inhibitory activity against proton pump activity” value is listed as “excellent inhibitory properties”.

As to `Cc1cccc(C)c1CNc1cc(N2C(=O)CNC2=O)cn2c(C)c(C)nc12` [Example 60, 3-(8-((2,6-dimethylbenzyl)amino)-2,3-dimethylimidazo[1,2-a]pyridin-6-yl)imidazolidine-2,4-dione], in the assay with Pylorus-Ligated Rats, the inhibition in vivo at 2 mg/kg is at least 90% and the “inhibitory activity against basal gastric acid secretion” value is “inhibitory activity”. Moreover, in assay [1], the IC50 was under 50 nM and the “inhibitory activity against proton pump activity” value is “excellent inhibitory properties”.

As to `Cc1cc(F)cc(C)c1CNc1cc(NC(=O)CO)cn2c(C)c(C)nc12.O=C(O)CC(O)(CC(=O)O)C(=O)O` [Example 86, N-(8-((4-fluoro-2,6-dimethylbenzyl)amino)-2,3-dimethylimidazo[1,2-a]pyridin-6-yl)-2-hydroxyacetamide citrate], in the assay on Pylorus-Ligated Rats, the inhibition in vivo at 2 mg/kg was at least 90% and the “inhibitory activity against basal gastric acid secretion” value was “inhibitory activity”. In addition, the half-maximal inhibitory concentration (IC50) in assay [1] is under 50 nM.

For `COCC(=O)Nc1cc(NCc2c(C)cc(F)cc2C)c2nc(C)c(C)n2c1.O=C(O)CC(O)(CC(=O)O)C(=O)O` [Example 100, N-(8-((4-fluoro-2,6-dimethylbenzyl)amino)-2,3-dimethylimidazo[1,2-a]pyridin-6-yl)-2-methoxyacetamide citrate], in the assay on Pylorus-Ligated Rats, the inhibition in vivo at 2 mg/kg is at least 90% and the “inhibitory activity against basal gastric acid secretion” value was “inhibitory activity”. Besides, the IC50 in assay [1] is under 50 nM.

Take `Cc1cc(F)cc(C)c1CNc1cc(NC(=O)CCO)cn2c(C)c(C)nc12.O=C(O)CC(O)(CC(=O)O)C(=O)O` [Example 101, N-(8-((4-fluoro-2,6-dimethylbenzyl)amino)-2,3-dimethylimidazo[1,2-a]pyridin-6-yl)-3-hydroxypropanamide citrate]: the inhibition in vivo at 2 mg/kg with Pylorus-Ligated Rats was in the range of 70 to 80%. For the same molecule, in the assay with Pylorus-Ligated Rats (citrate, 2 mg/kg), the “inhibitory activity against basal gastric acid secretion” value is “inhibitory activity; also recorded: somewhat reduced”. Moreover, the IC50 in assay [1] is under 50 nM.

For the molecule `Cc1cccc(C)c1CNc1cc(NC(=O)CCO)cn2c(C)c(C)nc12.O=C(O)CC(O)(CC(=O)O)C(=O)O` [Example 102, N-(8-((2,6-dimethylbenzyl)amino)-2,3-dimethylimidazo[1,2-a]pyridin-6-yl)-3-hydroxypropanamide citrate], in the assay with Pylorus-Ligated Rats, the inhibition in vivo at 2 mg/kg is at least 90% and the “inhibitory activity against basal gastric acid secretion” value is given as “inhibitory activity”. In assay [1], the IC50 was under 50 nM.
